# Assay: HILIC, Merck SeQuant ZIC-pHILIC, 150 × 2.1 mm, 5 µm, 40 °C, 0.3 mL/min, estimated dead time 1.1 min; A: acetonitrile; B: water + 2.8 mM ammonium formate, pH 9; gradient (min/%B) 0/5 1/5 10/51 13/51 13.1/5 20/5
# Settings: stereoisomer not certain
row,LC retention time,SMILES
1,2.09 min,CSc1ncnc2nc[nH]c12 [THIOPURINE S-METHYLETHER]
2,7.51 min,NC(=O)[C@@H](N)Cc1c[nH]c2ccccc12 [L-TRYPTOPHANAMIDE]
3,6.03 min,CC(C)(CO)C(O)C(=O)NCCC(=O)O (centres undefined) [PANTOTHENATE]
4,1.46 min,NC(=O)c1ccccc1O [SALICYLAMIDE]
5,2.04 min,CC(C)=CCNc1ncnc2nc[nH]c12 [N6-(DELTA2-ISOPENTENYL)-ADENINE]
6,7.99 min,O=c1[nH]c(=O)c2ncn(C3OC(CO)C(O)C3O)c2[nH]1 (centres undefined) [XANTHOSINE]
7,3.69 min,Cc1ncc(CO)c(CO)c1O [PYRIDOXINE]
8,3.02 min,CC(=O)NC(CC(C)C)C(=O)O (centres undefined) [N-ACETYLLEUCINE]
9,4.08 min,CC(=O)NC(Cc1ccccc1)C(=O)O (centres undefined) [N-ACETYLPHENYLALANINE]
10,5.66 min,CC(=O)NC(Cc1c[nH]c2ccccc12)C(=O)O (centres undefined) [N-ACETYLTRYPTOPHAN]
11,1.98 min,Cn1c(=O)c2[nH]cnc2n(C)c1=O [THEOPHYLLINE]
12,3.56 min,Cc1cn(C2CC(O)C(CO)O2)c(=O)[nH]c1=O (centres undefined) [THYMIDINE]
13,3.94 min,CSCC1OC(n2cnc3c(N)ncnc32)C(O)C1O (centres undefined) [METHYLTHIOADENOSINE]
14,6.53 min,O=c1[nH]c(=O)c2[nH]cnc2[nH]1 [XANTHINE]
15,5.56 min,O=C(O)c1cc(=O)c2ccccc2[nH]1 [KYNURENATE]
16,1.36 min,COc1ccc2[nH]cc(CCNC(C)=O)c2c1 [MELATONIN]

# Further lines, the molecule ahead of its results:
row,SMILES,LC retention time
1,Nc1ncnc2c1ncn2C1CC(O)C(CO)O1 (centres undefined) [DEOXYADENOSINE],5.19 min
2,CC1NC(=O)NC1CCCCCC(=O)O (centres undefined) [DETHIOBIOTIN],3.18 min
3,O=c1[nH]cnc2nc[nH]c12 [HYPOXANTHINE],6.25 min
4,O=C(O)Cc1c[nH]c2ccc(O)cc12 [5-HYDROXYINDOLEACETATE],5.86 min
5,Nc1nc2c(ncn2C2OC(CO)C(O)C2O)c(=O)[nH]1 (centres undefined) [GUANOSINE],7.76 min
6,O=c1[nH]cnc2c1ncn2C1OC(CO)C(O)C1O (centres undefined) [INOSINE],6.86 min
7,Nc1nc2c(ncn2C2CC(O)C(CO)O2)c(=O)[nH]1 (centres undefined) [DEOXYGUANOSINE],7.04 min
8,CC(=O)NCCCC(=O)[O-] [4-ACETAMIDOBUTANOATE],5.1 min
9,Nc1nc2nc[nH]c2c(=O)[nH]1 [GUANINE],7.4 min
10,CC12CCC(=O)C=C1CCC1C2C(O)CC2(C)C1CCC2(O)C(=O)CO (centres undefined) [CORTISOL],1.43 min
11,O=c1ccn(C2CC(O)C(CO)O2)c(=O)[nH]1 (centres undefined) [DEOXYURIDINE],4.73 min
12,CC1OC(n2cnc3c(N)ncnc32)C(O)C1O (centres undefined) [5'-DEOXYADENOSINE],4.24 min
13,O=C(O)CCCCC1SCC2NC(=O)NC21 (centres undefined) [BIOTIN],5.57 min
14,"N[C@@H](Cc1cc(I)c(Oc2ccc(O)cc2)c(I)c1)C(=O)O [3,5-DIIODO-L-THYRONINE]",6.36 min
15,COc1cc(C=CC(=O)O)ccc1O [FERULATE],3.78 min
16,Nc1cc([O-])cc(C(=O)O)c1 [3-AMINO-5-HYDROXYBENZOATE],8.3 min

# Assay: RP, Phenomenex Kinetex C18, 150 × 2.1 mm, 1.7 µm, 30 °C, 0.3 mL/min, estimated dead time 1.1 min; A: water + 0.1% formic acid, pH 3; B: acetonitrile + 0.1% formic acid, pH 3; gradient (min/%B) 0/2 14/100 17/100 17.1/2 25/2
# Settings: stereoisomer not certain
row,LC retention time,SMILES
1,4.64 min,CSc1ncnc2nc[nH]c12 [THIOPURINE S-METHYLETHER]
2,3.82 min,NC(=O)[C@@H](N)Cc1c[nH]c2ccccc12 [L-TRYPTOPHANAMIDE]
3,3.49 min,CC(C)(CO)C(O)C(=O)NCCC(=O)O (centres undefined) [PANTOTHENATE]
4,5.42 min,NC(=O)c1ccccc1O [SALICYLAMIDE]
5,5.14 min,CC(C)=CCNc1ncnc2nc[nH]c12 [N6-(DELTA2-ISOPENTENYL)-ADENINE]
6,3.11 min,O=c1[nH]c(=O)c2ncn(C3OC(CO)C(O)C3O)c2[nH]1 (centres undefined) [XANTHOSINE]
7,1.81 min,Cc1ncc(CO)c(CO)c1O [PYRIDOXINE]
8,5.25 min,CC(=O)NC(CC(C)C)C(=O)O (centres undefined) [N-ACETYLLEUCINE]
9,5.64 min,CC(=O)NC(Cc1ccccc1)C(=O)O (centres undefined) [N-ACETYLPHENYLALANINE]
10,5.91 min,CC(=O)NC(Cc1c[nH]c2ccccc12)C(=O)O (centres undefined) [N-ACETYLTRYPTOPHAN]
11,4.07 min,Cn1c(=O)c2[nH]cnc2n(C)c1=O [THEOPHYLLINE]
12,3.34 min,Cc1cn(C2CC(O)C(CO)O2)c(=O)[nH]c1=O (centres undefined) [THYMIDINE]
13,4.07 min,CSCC1OC(n2cnc3c(N)ncnc32)C(O)C1O (centres undefined) [METHYLTHIOADENOSINE]
14,2.05 min,O=c1[nH]c(=O)c2[nH]cnc2[nH]1 [XANTHINE]
15,4.34 min,O=C(O)c1cc(=O)c2ccccc2[nH]1 [KYNURENATE]
16,6.37 min,COc1ccc2[nH]cc(CCNC(C)=O)c2c1 [MELATONIN]

# Further lines, the molecule ahead of its results:
row,SMILES,LC retention time
1,Nc1ncnc2c1ncn2C1CC(O)C(CO)O1 (centres undefined) [DEOXYADENOSINE],2.8 min
2,CC1NC(=O)NC1CCCCCC(=O)O (centres undefined) [DETHIOBIOTIN],5.37 min
3,O=c1[nH]cnc2nc[nH]c12 [HYPOXANTHINE],1.76 min
4,O=C(O)Cc1c[nH]c2ccc(O)cc12 [5-HYDROXYINDOLEACETATE],4.69 min
5,Nc1nc2c(ncn2C2OC(CO)C(O)C2O)c(=O)[nH]1 (centres undefined) [GUANOSINE],2.8 min
6,O=c1[nH]cnc2c1ncn2C1OC(CO)C(O)C1O (centres undefined) [INOSINE],2.79 min
7,Nc1nc2c(ncn2C2CC(O)C(CO)O2)c(=O)[nH]1 (centres undefined) [DEOXYGUANOSINE],2.97 min
8,CC(=O)NCCCC(=O)[O-] [4-ACETAMIDOBUTANOATE],2.62 min
9,Nc1nc2nc[nH]c2c(=O)[nH]1 [GUANINE],1.44 min
10,CC12CCC(=O)C=C1CCC1C2C(O)CC2(C)C1CCC2(O)C(=O)CO (centres undefined) [CORTISOL],7.18 min
11,O=c1ccn(C2CC(O)C(CO)O2)c(=O)[nH]1 (centres undefined) [DEOXYURIDINE],2.63 min
12,CC1OC(n2cnc3c(N)ncnc32)C(O)C1O (centres undefined) [5'-DEOXYADENOSINE],3.24 min
13,O=C(O)CCCCC1SCC2NC(=O)NC21 (centres undefined) [BIOTIN],4.98 min
14,"N[C@@H](Cc1cc(I)c(Oc2ccc(O)cc2)c(I)c1)C(=O)O [3,5-DIIODO-L-THYRONINE]",6.51 min
15,COc1cc(C=CC(=O)O)ccc1O [FERULATE],5.87 min
16,Nc1cc([O-])cc(C(=O)O)c1 [3-AMINO-5-HYDROXYBENZOATE],1.75 min

# From the RepoRT retention time repository (doi:10.1016/j.chroma.2019.01.023)
